Bridge positions count the residues as written; N and C are the ends. Square brackets hold non-standard residues; d marks the D form. Primed or numbered codes have the meaning given here. Ends that are not written are not given here. * marks the point of attachment. Lys(N3) = [N-]=[N+]=NCCCC[C@H](N)C(=O)O; Ttds = NCCCOCCOCCOCCCNC(=O)CCC(=O)*; hCys = N[C@@H](CCS)C(=O)O; PEG4′ = not defined here

The first test deals with Primary Human Aortic Endothelial Cells (HAEC). Kind of test: Human aortic endothelial cells grown 48 h on bare or peptide-coated nitinol disks; F-actin / CD31 staining and image analysis. The test is classed as cell-based. The note with it: Example 2, FIG. 25; repeated experiments (SP547, SP548 only one measure). How it is done:
Nitinol disks are left untouched (bare metal) or coated with a domain 1, domain 2 or domain 1 and 2 CD31 analog peptide. The tested peptide is grafted to the nitinol disk following a polydopamine, DBCO-PEG4-amine and azide CD31 derivative peptide using a sequential dip-coating layering procedure. After this step, all the disks are incubated with Human aortic endothelial cells for 48 h. Disks are then rinsed and the cells are fixed in a formalin solution before staining. The staining is fulfilled using phalloidin coupled to AlexaFluor®488 dye (green fluorescence for Actin), DAPI is used for DNA staining and a domain 1 CD31 antibody coupled to APC is used for external Domain 1 staining. The cell adhesion and Actin/CD31 expression was evaluated by image analysis of the surface after staining.
In particular, as per FIG. 2 the bare or coated nitinol disks were placed at the bottom of culture wells. Primary Human Aortic Endothelial Cells (HAEC) were allowed to grow on the disks for a period of 48 h. The disks were thereafter rinsed with phosphate buffered saline, fixed in formalin, and processed for fluorescence microscopy. Disk-adherent cells were immersed in a solution comprising Hoechst 33342 (1 μg/ml, to stain the nuclei), phalloidin coupled to AlexaFluor®488 dye (0.5 μM, to stain F-actin fibers) and a monoclonal antibody directed against CD31 domain 1, coupled to allophycocyanin (to detect the presence and localization of intact CD31 at the cell surface) for 1 hour at 37° C., washed and mounted face down on glass bottom imaging chambers for imaging with an inverted fluorescence microscope.
Surface type is indicated on the Y axis, data are expressed as average±SD (N=6/surface type). Each dot corresponds to a specific surface modification. The F-actin expression relates the cellular stress of the cell in presence of the exogenous material.
In FIG. 4 the surface type is indicated on the Y axis. Each dot corresponds to a specific surface modification. Data are expressed as “Integrated Density” average±SD (N=6/surface type). CD31 expression relates the capacity of endothelial cells to adopt a physiologic phenotype while growing on a given substrate. An important variability is observed in terms of CD31 expression by HAEC according to the surface modification of the nitinol disks.
The “mirror” bars of FIG. 5 report the average Integrated Density of F-actin (left) and of CD31 (right) staining for each of the indicated (Y axis) type of peptide coated onto the disk surface and bare disks. Data are sorted (from the top to the bottom) according to the increase in the cellular stress (actin expression) of each coating. As shown on the figure, the degree of cellular stress (as detected by a high actin expression) and impaired endothelial phenotype (documented by a low CD31 expression) is evident on HAEC grown onto bare metal disks.
The data shown in FIG. 6 are expressed as the ratio between CD31 and F-actin expression.
The effect of different peptides, belonging to the different groups, were tested in batches following the same protocol as in FIG. 6. Different peptides from each group were tested in batches and the effect of individual peptides was repeatedly assessed in separate experiments. Data from all experiments were obtained by computer-assisted analysis of images of the disk side covered with endothelial cells, captured in the blue, green and red channel of an inverted fluorescence microscope. The functional score of the peptides belonging to the different groups was calculated by multiplying the number of cells (as detected by the number of blue, Dapi+ nuclei) for the integrated density of CD31 expression (red signal provided by the binding of a mouse anti-human CD31 monoclonal antibody, clone 9G11, conjugated allophycocyanin) and their product being divided for the integrated density of the F-actin polymerization (Phalloidin coupled to a green fluorochrome). […]
For the substance “[Ac-K(N3)-(Ttds)4-PRVTLDKKEAIQGGIVRVNSSVPEEK-Ttds-K^# (CH2CO)-CONH2]-[QHQMLFYhC^#DDVLFYNISSMK-CONH2] (chain 1 {Ac-Lys(N3)-Ttds-Ttds-Ttds-Ttds}-PRVTLDKKEAIQGGIVRVNSSVPEEK-{Ttds-K(CH2CO)-NH2}; chain 2 QHQMLFY[hCys]DDVLFYNISSMK-NH2; also: thioether at chain B 8 to a chain's C-terminus) [SP1383]”, the CD31/Actin score entry is listed as “significantly higher than those obtained by the bare metal disks or by disks coated with PDA alone”.

In the case of “[^#CH2CONH2GTYKSTVIVNNKEKTTAEYQ-(Ttds)4-K(N3)-NH2]-[QHQMLFYhC^#DDVLFYNISSMK-CONH2] (chain 1 GTYKSTVIVNNKEKTTAEYQ-{Ttds-Ttds-Ttds-Ttds-Lys(N3)-NH2}; chain 2 QHQMLFY[hCys]DDVLFYNISSMK-NH2; not fully specified (N-terminus); also: thioether at chain B 8 to a chain's N-terminus) [SP1379]”, the CD31/Actin score result was “significantly higher than those obtained by the bare metal disks or by disks coated with PDA alone”.

Turning to “SHQMLFYKDDVLFYNISSS-GGSGGSGG-K(N3)-CONH2 (SHQMLFYKDDVLFYNISSSGGSGGSGG[Lys(N3)]-NH2; N-terminus assumed; SMILES CC[C@H](C)[C@H](NC(=O)[C@H](CC(N)=O)NC(=O)[C@H](Cc1ccc(O)cc1)NC(=O)[C@H](Cc1ccccc1)NC(=O)[C@H](CC(C)C)NC(=O)[C@@H](NC(=O)[C@H](CC(=O)O)NC(=O)[C@H](CC(=O)O)NC(=O)[C@H](CCCCN)NC(=O)[C@H](Cc1ccc(O)cc1)NC(=O)[C@H](Cc1ccccc1)NC(=O)[C@H](CC(C)C)NC(=O)[C@H](CCSC)NC(=O)[C@H](CCC(N)=O)NC(=O)[C@H](Cc1c[nH]cn1)NC(=O)[C@@H](N)CO)C(C)C)C(=O)N[C@@H](CO)C(=O)N[C@@H](CO)C(=O)N[C@@H](CO)C(=O)NCC(=O)NCC(=O)N[C@@H](CO)C(=O)NCC(=O)NCC(=O)N[C@@H](CO)C(=O)NCC(=O)NCC(=O)N[C@@H](CCCCN=[N+]=[N-])C(N)=O) [SP745]”, the CD31/Actin score result was “significantly higher than those obtained by the bare metal disks or by disks coated with PDA alone”.

Consider “Ac-K(N3)-GGSGGSGG-YKDDVLFYNISSMKST-NH2 (Ac-[Lys(N3)]GGSGGSGGYKDDVLFYNISSMKST-NH2; SMILES CC[C@H](C)[C@H](NC(=O)[C@H](CC(N)=O)NC(=O)[C@H](Cc1ccc(O)cc1)NC(=O)[C@H](Cc1ccccc1)NC(=O)[C@H](CC(C)C)NC(=O)[C@@H](NC(=O)[C@H](CC(=O)O)NC(=O)[C@H](CC(=O)O)NC(=O)[C@H](CCCCN)NC(=O)[C@H](Cc1ccc(O)cc1)NC(=O)CNC(=O)CNC(=O)[C@H](CO)NC(=O)CNC(=O)CNC(=O)[C@H](CO)NC(=O)CNC(=O)CNC(=O)[C@H](CCCCN=[N+]=[N-])NC(C)=O)C(C)C)C(=O)N[C@@H](CO)C(=O)N[C@@H](CO)C(=O)N[C@@H](CCSC)C(=O)N[C@@H](CCCCN)C(=O)N[C@@H](CO)C(=O)N[C@H](C(N)=O)[C@@H](C)O) [SP547]”, for which the CD31/Actin score entry was “equivalent to those of sections coated by other peptides according to the invention”.

Take “Ac-K(N3)-PEG4-PRVTLDKKEAIQGGIVRVNSSVPEEK-CONH2 (Ac-[Lys(N3)][PEG4′]PRVTLDKKEAIQGGIVRVNSSVPEEK-NH2) [SP1071]”: the CD31/Actin score entry is listed as “significantly higher than those obtained by the bare metal disks or by disks coated with PDA alone”.

Still in this test, the particulars now being: HAEC 48 h on coated nitinol disks, compared to other modified disks and bare controls; FIGS. 2, 4, 5.
For “Ac-K(N3)-(Ttds)4-PRhCTLDKKEAIQGGIVRVNhCSVPEEK-CONH2 ({Ac-Lys(N3)-Ttds-Ttds-Ttds-Ttds}-PR[hCys]TLDKKEAIQGGIVRVN[hCys]SVPEEK-NH2; disulfide 3-20) [SP1380]”, the “CD31 expression (physiologic endothelial phenotype), Integrated Density” value is “evident positive effect in terms of CD31 expression”.
